≈ marks a conversion by molar mass, not a printed value. Read-outs that look alike come from different tables or passages of the source.
Tests used:
[1] = system: Aspergillus carbonarius ATCC 8740; test: Aspergillus panel MIC; assay type: cell-based; details: Table 8
Procedure: (§1) Starter cultures of fungal strains to be tested were grown in 3 mL of RPMI 2% glucose media incubated at 37° C. with shaking at 200 rpm overnight. The culture media used was 900 mL H2O; 10.4 g RPMI 1640 (with L-glutamine and a pH indicator but without bicarbonate); 34.5 g MOPS and 18 g glucose. The pH of the media was adjusted to 7.0 with 1 M sodium hydroxide.
(§2) Solutions of the compound to be tested were prepared by dissolving the compound in DMSO and subsequently into media to the desired concentrations. 200 μL of compound solution was then added to the wells of the 96-well plate using a serial dilution method row-by row of the plate to give a compound concentration gradient across the plate of from 128 μg/mL to 0.25 μg/mL. The last two rows of each plate were control rows containing the culture media alone and the media plus fungi.
(§3) The fungi starter cultures were diluted 1:10 in water in cuvettes. This was then further diluted to an optical density (OD600) of 0.01 in media. 100 μL of the fungi was added to each well giving a starting concentration of fungus of 0.5-5×10^5/mL. One species of fungus was used on each plate. The plates were then held at 37° C. for 24 hours.
(§4) A plate reader was used to measure growth in each well at OD530 nm and the MIC was determined for each test compound. The MIC is defined as the lowest concentration giving rise to inhibition of ≥50% of that of the drug-free control well containing the fungus and media.
(§5) The compound of Example 2 (which corresponds to compound number 2) was tested against a panel of Aspergillus strains using a method analogous to that described above for the Candida Panel.

[2] = system: Aspergillus fulavus ATCC 204304; test: Aspergillus panel MIC; assay type: cell-based; details: Table 8
Procedure: as §1, §2, §3, §4, §5

[3] = system: Aspergillus fumigatus ATCC 1028; test: Aspergillus panel MIC; assay type: cell-based; details: Table 8
Procedure: as §1, §2, §3, §4, §5

[4] = system: Aspergillus fumigatus ATCC 10894; test: Aspergillus panel MIC; assay type: cell-based; details: Table 8
Procedure: as §1, §2, §3, §4, §5

[5] = system: Aspergillus fumigatus ATCC 13073; test: Aspergillus panel MIC; assay type: cell-based; details: Table 8
Procedure: as §1, §2, §3, §4, §5

[6] = system: Aspergillus fumigatus ATCC 16424; test: Aspergillus panel MIC; assay type: cell-based; details: Table 8
Procedure: as §1, §2, §3, §4, §5

[7] = system: Aspergillus fumigatus ATCC 204305; test: Aspergillus panel MIC; assay type: cell-based; details: Table 8
Procedure: as §1, §2, §3, §4, §5

[8] = system: C. albicans NCPF3281; test: Candida panel MIC, serial dilution in 96-well plates; assay type: cell-based, Candida albicans; details: NCPF3281, read-out: MIC C. albicans NCPF3281
In short: (§6)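 Overnight starter cultures were diluted to OD600 0.01 and added to serially diluted compound (128 to 0.25 μg/mL) in MOPS-buffered RPMI with 2% glucose, pH 7.0, giving 0.5-5×10^5 cells/mL. After 24 h at 37 °C, OD530 was measured and the ≥50% inhibition endpoint taken as MIC.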

[9] = system: C. glabrata NCPF8018; test: as above; assay type: cell-based, Candida glabrata; details: Nakaseomyces glabratus
In short: (§7)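 MIC taken as lowest concentration inhibiting growth ≥50% relative to drug-free control, from OD530 after 24 hours at 37° C. Fungi at 0.5-5×10^5/mL were exposed to serially diluted compound in RPMI 1640/MOPS/2% glucose medium adjusted to pH 7.0.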

[10] = system: C. krusei NCPF3876; test: microbe, parasite or virus in culture; assay type: cell-based, Candida krusei; details: Pichia kudriavzevii
In short: as §7

[11] = system: C. parapsilosis NCPF3209; test: microbe, parasite or virus in culture; assay type: cell-based, Candida parapsilosis; details: Lodderomyces parapsilosis
In short: as §7

[12] = system: Candida auris TDG2211; test: microbe, parasite or virus in culture; assay type: cell-based; details: Candidozyma auris, TDG2211; Table 4, extended panel; 24 hours, ≥50% inhibition; read-out: MIC Candida auris TDG2211
In short: (§8)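 MIC = lowest concentration inhibiting growth ≥50% relative to drug-free control, read by OD530 nm after 24 h at 37° C. Medium: RPMI 1640/MOPS/2% glucose, pH 7.0. Inoculum 0.5-5×10^5/mL.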

[13] = system: Candida auris TDG2506; test: microbe, parasite or virus in culture; assay type: cell-based; details: Candidozyma auris, TDG2506; Table 4, extended panel; 24 hours, ≥50% inhibition; read-out: MIC Candida auris TDG2506
In short: as §8

[14] = system: C. auris TDG1912; test: Candida panel MIC, serial dilution in 96-well plates; assay type: cell-based; details: Candidozyma auris, TDG1912; Table 4; 24 hours, ≥50% inhibition; read-out: MIC C. auris TDG1912
In short: as §6

[15] = system: C. tropicalis NCPF8760; test: as above; assay type: cell-based
In short: as §6

[16] = system: Candida auris TDG1102; test: as above; assay type: cell-based; details: Candidozyma auris, TDG1102; Table 4, extended panel; 24 hours, ≥50% inhibition; read-out: MIC Candida auris TDG1102
In short: as §6

[17] = system: Candida auris TDG2512; test: as above; assay type: cell-based; details: Candidozyma auris, TDG2512; Table 4, extended panel; 24 hours, ≥50% inhibition; read-out: MIC Candida auris TDG2512
In short: as §6

[18] = system: C. auris 8971; test: as above; assay type: cell-based, Candida auris; details: Candidozyma auris, 8971; Table 4, extended panel; 24 hours, ≥50% inhibition; read-out: MIC C. auris 8971
In short: as §8

[19] = system: C. auris 8977; test: as above; assay type: cell-based, Candida auris; details: Candidozyma auris, 8977; Table 4, extended panel; 24 hours, ≥50% inhibition; read-out: MIC C. auris 8977
In short: as §8

[20] = system: C. auris 8984; test: as above; assay type: cell-based, Candida auris; details: Candidozyma auris, 8984; Table 4, extended panel; 24 hours, ≥50% inhibition; read-out: MIC C. auris 8984
In short: as §8

[21] = system: C. albicans 3363; test: Candida albicans panel MIC; assay type: cell-based; details: Table 6, Candida albicans panel
Procedure: (§9) The minimum inhibitory concentration of test compounds were determined in a panel of Candida species (see Table 4 below), using the a serial dilution method in 96-well plates using the following protocol.
as §1, §2, §3, §4
(§10) The compounds shown in Table 6 were tested against a further panel of Candida albicans.

[22] = system: C. albicans 3645; test: Candida albicans panel MIC; assay type: cell-based; details: Table 6, Candida albicans panel
Procedure: as §9, §1, §2, §3, §4, §10

[23] = system: C. albicans 3880; test: Candida albicans panel MIC; assay type: cell-based; details: Table 6, Candida albicans panel
Procedure: as §9, §1, §2, §3, §4, §10

[24] = system: C. albicans 3881; test: Candida albicans panel MIC; assay type: cell-based; details: Table 6, Candida albicans panel
Procedure: as §9, §1, §2, §3, §4, §10

[25] = system: C. albicans 3882; test: Candida albicans panel MIC; assay type: cell-based; details: Table 6, Candida albicans panel
Procedure: as §9, §1, §2, §3, §4, §10

[26] = system: C. albicans 3990; test: Candida albicans panel MIC; assay type: cell-based; details: Table 6, Candida albicans panel
Procedure: as §9, §1, §2, §3, §4, §10

[27] = system: C. albicans 8112; test: Candida albicans panel MIC; assay type: cell-based; details: Table 6, Candida albicans panel
Procedure: as §9, §1, §2, §3, §4, §10

[28] = system: C. auris strain TDG1912; test: Galleria mellonella infection model, larval survival; assay type: in vivo; details: G. mellonella infected with C. auris TDG1912; survival over 120 hours
Procedure: The effects of test compounds in-vivo was assessed using a Galleria mellonella infection model.
G. mellonella were injected in a proleg with 10 μL of C. auris strain TDG1912 (OD4) at a concentration of 1×10^6 cfu/10 μL using a Hamilton syringe and left for 30 minutes to recover from injection and to allow infection to begin. The G. mellonella were then injected with 10 μL of the compound of the invention at either 50 mg/kg (10% DMSO) or 20 mg/kg (4% DMSO) or PBS containing 10% DMSO as an infection-only control. 10 larvae were selected for each treatment, and the experiment was repeated 3 times for the test compound and fluconazole. Survival of larvae was monitored for a 5 day period and results are presented as % survival over 120 hours (see FIG. 1).

[29] = system: Galleria mellonella larvae; test: Toxicity to larvae in the Galleria mellonella model; assay type: in vivo; details: dose of 50 mg/kg

N#Cc1ccc(-c2ccc(NC3CCN(CC(O)(Cn4cncn4)c4ccc(F)cc4F)CC3)cc2)cc1 (stereo not shown) [Compound number 2, 4′-((1-(2-(2,4-difluorophenyl)-2-hydroxy-3-(1H-1,2,4-triazol-1-yl)propyl)piperidin-4-yl)amino)-[1,1′-biphenyl]-4-carbonitrile]
Minimum inhibitory concentration Aspergillus carbonarius ATCC 8740 [1]: 0.25 | Minimum inhibitory concentration Aspergillus fulavus ATCC 204304 [2]: 0.5 | Minimum inhibitory concentration Aspergillus fumigatus ATCC 1028 [3]: 0.25 | Minimum inhibitory concentration Aspergillus fumigatus ATCC 10894 [4]: 0.25 | Minimum inhibitory concentration Aspergillus fumigatus ATCC 13073 [5]: ≤0.125 | Minimum inhibitory concentration Aspergillus fumigatus ATCC 16424 [6]: ≤0.125 | Minimum inhibitory concentration Aspergillus fumigatus ATCC 204305 [7]: ≤0.125

OC(CN1CCC(Nc2ccc(OCCN3CCOCC3)cc2)CC1)(Cn1cncn1)c1ccc(F)cc1F (stereo not shown) [Example 6, 2-(2,4-Difluorophenyl)-1-(4-((4-(2-morpholinoethoxy)phenyl)amino)piperidin-1-yl)-3-(1H-1,2,4-triazol-1-yl)propan-2-ol]
MIC ([8]; Candida albicans, Table 4, common panel, 24 hours, ≥50% inhibition): 0.004 µg/mL (≈ 0.00737 µM) | MIC ([8]; Table 6, Candida albicans panel): ≤ 0.125 µg/mL | MIC ([9]; NCPF8018, read-out: MIC C. Glabrata NCPF8018): 2 to 4 µg/mL (≈ 3.69 to 7.37 µM) | MIC ([9]; NCPF8018, Table 4, common panel, 24 hours, ≥50% inhibition, read-out: MIC C. glabrata NCPF8018): 0.25 µg/mL (≈ 0.461 µM) | MIC ([10]; NCPF3876, read-out: MIC C. Krusei NCPF3876): 0.125 µg/mL (≈ 0.23 µM) | MIC ([10]; NCPF3876, Table 4, common panel, 24 hours, ≥50% inhibition, read-out: MIC C. krusei NCPF3876): 0.125 µg/mL (≈ 0.23 µM) | MIC ([11]; NCPF3209, read-out: MIC C. Parapsilosis NCPF3209): 0.015 µg/mL (≈ 0.0276 µM) | MIC ([11]; NCPF3209, Table 4, common panel, 24 hours, ≥50% inhibition, read-out: MIC C. parapsilosis NCPF3209): 0.015 µg/mL (≈ 0.0276 µM) | MIC [12]: 0.5 µg/mL (≈ 0.921 µM) | MIC [13]: 0.25 µg/mL (≈ 0.461 µM) | MIC [14]: 0.125 µg/mL (≈ 0.23 µM) | MIC ([15]; NCPF8760, Table 4, common panel, 24 hours, ≥50% inhibition, read-out: MIC C. tropicalis NCPF8760): 0.008 µg/mL (≈ 0.0147 µM) | MIC ([15]; NCPF8760, read-out: MIC C. Tropicalis NCPF8760): 0.008 µg/mL (≈ 0.0147 µM) | MIC [16]: 0.12 µg/mL (≈ 0.221 µM) | MIC [17]: 0.015 µg/mL (≈ 0.0276 µM) | MIC [18]: 0.03 µg/mL (≈ 0.0553 µM) | MIC [19]: 0.06 µg/mL (≈ 0.111 µM) | MIC [20]: 0.125 µg/mL (≈ 0.23 µM) | MIC [21]: 0.25 µg/mL (≈ 0.461 µM) | MIC [22]: 0.0156 µg/mL (≈ 0.0287 µM) | MIC [23]: 0.25 µg/mL (≈ 0.461 µM) | MIC [24]: 0.5 µg/mL (≈ 0.921 µM) | MIC [25]: 0.5 µg/mL (≈ 0.921 µM) | MIC [26]: 0.25 µg/mL (≈ 0.461 µM) | MIC [27]: 0.0156 µg/mL (≈ 0.0287 µM) | Protection against multi-drug resistant C. auris (larval survival) [28]: statistically significant protection | Toxicity to the larvae [29]: No toxicity
